Experimental data reported in US10077436B2, “Beta-glucosidase enzymes for increased biomass saccharification” (Edeniq, Inc., priority 2013, dated 2018).

Columns and labels:
Format in all cases: biochemical
[1] = system: A-BG (Accellerase® BG from DuPont), commercial beta-glucosidase; experiment: BG kinetics, cellobiose hydrolysis assay (HPLC) with glucose as competitive inhibitor, A-BG; details: cellobiose substrate, pH 4.8, 50° C.
Excerpt: (§1) The kinetic properties of beta glucosidase are important for cellulosic hydrolysis, since in commercial situations a wide range of substrate concentrations and different product inhibition conditions will be encountered. In this example, a Michaelis-Menten kinetics model was used to describe BG kinetics.
(§2) BG activity assay using cellobiose is the other standard assay to measure BG or cellobiase activity, which utilizes hydrolysis of cellobiose by cellobiase into two molecules of glucose, the last step of enzymatic hydrolysis of cellulose. One cellobiase unit (commonly termed as CBU) is defined as the amount of enzyme that converts […] of cellobiose or produces 2 μmol of glucose per min. Briefly, to determine BG activity, 25 μL of diluted enzyme in 50 mM citrate buffer (pH 4.8) equilibrated to 50° C. was mixed with 25 μL cellobiose (or cellobiose/glucose mixture for the kinetic study) to start the reaction. The mixture was incubated at 50° C. for 10 min, and the reaction was terminated by incubating the mixture at 99° C. for 5 min. Different methods are available to measure the glucose produced in the assays. For the kinetic study, HPLC was used.
To determine kinetic properties using cellobiose substrate, duplicate assays with cellobiose concentrations ranging from 0.47 to 15 mM and glucose concentrations of 0, 0.9, 4.5, 6.75, and 8.1 (for A-BG) or 9 (for all the other three BGs) g/L were performed. As for pNPG substrate, the range of cellobiose substrate concentration was chosen to show detectable activity at the lowest substrate concentration and saturation stage at high substrate concentration. […] Moreover, theoretically there are two ways to measure BG activity by HPLC when cellobiose is used as the substrate: tracking consumption of cellobiose or tracking production of glucose. […] In Table 3, A % is defined as follows and is an indicator of measurement sensitivity, since the difference of substrate or product concentrations before and after reaction was used to determine BG activity. Δ%=(start conc. of cellobiose−end conc. of cellobiose)/start conc. of cellobiose×100% (3) Δ%=(end conc. of glucose−start conc. of glucose)/start conc. of glucose×100% (4)
A similar simultaneous nonlinear regression method based on the competitive inhibition equation expressed in Equation (1) was used to determine kinetic parameters of BG towards cellobiose.
The specific activity used here was determined by the initial velocity approach that is required by implementing Michaelis-Menten model (Copeland, 2000). The specific activity was determined by measuring consumption of cellobiose in the first 10 min of reaction and was expressed as μmol min^−1 mg^−1, where mg^−1 means per mg of total protein. The relative activity was determined based on the maximum activity obtained in the absence of initial glucose inhibition.
(§3) The above experimental data were fit in the competitive inhibition model as expressed in Equation (1) by simultaneous nonlinear regression.

[2] = system: S-BG (Novozymes SP188 from Sigma), commercial beta-glucosidase; experiment: BG kinetics, cellobiose hydrolysis assay (HPLC) with glucose as competitive inhibitor, S-BG; details: cellobiose substrate, pH 4.8, 50° C.
Excerpt: (§4) The kinetic properties of beta glucosidase are important for cellulosic hydrolysis, since in commercial situations a wide range of substrate concentrations and different product inhibition conditions will be encountered. In this example, a Michaelis-Menten kinetics model was used to describe BG kinetics. To determine these kinetic properties, BG activity assays using standard substrates pNPG and cellobiose were employed. yEdQ745-BG (wild type) and yEdQ885-BG (improved), were compared with two commercial BGs, A-BG (Accellerase®) BG from Dupont) and S-BG (Novozymes SP188 from Sigma).
as §2
To determine kinetic properties using cellobiose substrate, duplicate assays with cellobiose concentrations ranging from 0.47 to 15 mM and glucose concentrations of 0, 0.9, 4.5, 6.75, and 8.1 (for A-BG) or 9 (for all the other three BGs) g/L were performed. As for pNPG substrate, the range of cellobiose substrate concentration was chosen to show detectable activity at the lowest substrate concentration and saturation stage at high substrate concentration. However, in contrast to the pNPG substrate, when there was still some activity left at glucose concentration up to 36 g/L, most of the BG activity was lost at an inhibitor level of 9 g/L when cellobiose substrate was used. […] It should also be noted that colorimetric glucose assay cannot provide activity results for inhibitory glucose levels above 0.9 g/L after several trials. Therefore, HPLC measurements were used for kinetic studies using cellobiose substrate. It should be pointed out that the HPLC method may not be sensitive enough either to capture BG activity under more severe glucose inhibition conditions than 9 g/L of glucose. Moreover, theoretically there are two ways to measure BG activity by HPLC when cellobiose is used as the substrate: tracking consumption of cellobiose or tracking production of glucose. However, as shown by the example of one set of results from S-BG in Table 3, tracking glucose is problematic due to measurement sensitivity. In Table 3, A % is defined as follows and is an indicator of measurement sensitivity, since the difference of substrate or product concentrations before and after reaction was used to determine BG activity. Δ%=(start conc. of cellobiose−end conc. of cellobiose)/start conc. of cellobiose×100% (3) Δ%=(end conc. of glucose−start conc. of glucose)/start conc. of glucose×100% (4)
With increasing inhibitor (glucose) level, Δ% is decreasing. For the case of tracking glucose, Δ% was too small to be reliable when 4.5 g/L of glucose was added at the beginning. […] Thus, the approach of tracking cellobiose was chosen due to its higher detection sensitivity. In the substrate range used to determine kinetic parameters (0.47 to 30 mM for A-BG and 0.47 to 15 mM for the other three BGs), the detection sensitivity is reasonable.
A similar simultaneous nonlinear regression method based on the competitive inhibition equation expressed in Equation (1) was used to determine kinetic parameters of BG towards cellobiose. […]

[3] = system: S-BG (Novozymes SP188 from Sigma), commercial beta-glucosidase; experiment: BG kinetics, pNPG hydrolysis assay with glucose as competitive inhibitor, S-BG; details: pNPG substrate, pH 5.0, 50° C.
Excerpt: as §4
(§5) BG activity assay using pNPG is one of the two commonly used standard assays to measure BG activity, which utilizes hydrolysis of p-nitrophenyl-β-D-glucopyranoside (pNPG) by BG into a yellow colored product, p-nitrophenol (pNP), that has a strong absorbance at 405 nm. One pNPG unit is defined as the amount of enzyme that produces 1 μmol of pNP per min. Briefly, to determine BG activity, 25 μL of diluted enzyme in 200 mM sodium acetate buffer (pH 5.0) was mixed with 25 μL of the same buffer and 25 μL of RO water (or glucose solution for the kinetic study) and the mixture was preincubated at 50° C. for 5 min. The reaction was initiated by adding 25 μL of 10 mM pNPG in 200 mM sodium acetate buffer (pH 5.0) and the mixture was incubated at 50° C. for 10 min. The reaction was then terminated by adding 100 μL of 0.25 M sodium carbonate, and the amount of pNP produced was determined by measuring absorbance at 405 nm using a predetermined calibration curve.
The range of substrate concentration was chosen to show detectable activity at the lowest concentration and saturation stage at high substrate concentration. The upper limit of inhibitor (glucose) level was chosen to get as close as possible to the real conditions during saccharification (˜4% w/v glucose) and have a detectable residual activity.
(§6) To determine the kinetic properties, a competitive inhibition mechanism was hypothesized as proposed in the literature (Chauve et al, 2010; Krogh et al, 2010). The Michaelis-Menten equation with the competitive inhibition term can be expressed in Equation (1), where [S] is the substrate concentration (mM), [I] is the inhibitor concentration (mM), V is the rate of product formation (mM/min), Vmax is the maximal rate of product formation (mM/min), Km is the Michaelis-Menten constant and Ki is the inhibition constant. The turnover number, Kcat, can be calculated by Equation (2), where [Et] is the total amount of enzyme.
(§7) Conventionally, linearization methods can be used to determine the kinetic parameters based on Equation (1). Three common linear plots used are Lineweaver-Burke, Eadie-Hofstee and Hanes plots (Rogers and Gibon, 2009). However, these linearized versions of the Michaelis-Menten equation often produce substantial errors in parameter estimation. […] All of the activity data at different substrate levels and different inhibitor levels were fit simultaneously according to the full nonlinear equation for competitive enzyme inhibition as expressed in Equation (1). Thus, Vmax, Km and Ki can be determined simultaneously from this fitting process, and Km/Ki can then be calculated. Kcat can be obtained by Equation (2) and Kcat/Km can be calculated accordingly.
The above experimental data were fit in the competitive inhibition model as expressed in Equation (1) by simultaneous nonlinear regression. The order of maximum velocity (Vmax) is A-BG>yEdQ885-BG>S-BG≈yEdQ745-BG. […] Nevertheless, the in-house BGs have much higher dissociation constant for inhibitor (Ki), indicating higher tolerance to product inhibition. Consistent with Vmax, the order of turnover number (Kcat) is A-BG>yEdQ885-BG>S-BG≈yEdQ745-BG. With much lower Km and much higher Kcat, A-BG has a considerably higher catalytic efficiency (Kcat/Km) than the other enzymes. The catalytic efficiency of S-BG and yEdQ885-BG is quite close, which is higher than that of yEdQ745-BG. […]

[4] = system: A-BG (Accellerase® BG from DuPont), commercial beta-glucosidase; experiment: BG kinetics, pNPG hydrolysis assay with glucose as competitive inhibitor, A-BG; details: pNPG substrate, pH 5.0, 50° C.
Experimental: as §1
as §5, with “One” for “BG activity assay using pNPG is one of the two commonly used standard assays to measure BG activity, which utilizes hydrolysis of p-nitrophenyl-β-D-glucopyranoside (pNPG) by BG into a yellow colored product, p-nitrophenol (pNP), that has a strong absorbance at 405 nm. One”
The range of substrate concentration was chosen to show detectable activity at the lowest concentration and saturation stage at high substrate concentration.
as §6, §7, §3

SMILES	Kcat [1] [s⁻¹]	Kcat/Km [1] [M⁻¹ s⁻¹]	Km [1] [µM]	Vmax [1] [units/mg]	Kcat [2] [s⁻¹]	Kcat/Km [2] [M⁻¹ s⁻¹]	Km [2] [µM]	Vmax [2] [units/mg]	Kcat [3] [s⁻¹]	Kcat/Km [3] [M⁻¹ s⁻¹]	Km [3] [µM]	Vmax [3] [U/mg]	Kcat [4] [s⁻¹]	Kcat/Km [4] [M⁻¹ s⁻¹]	Km [4] [µM]	Vmax [4] [U/mg]
OC[C@H]1O[C@@H](O[C@H]2[C@H](O)[C@@H](O)C(O)O[C@@H]2CO)[C@H](O)[C@@H](O)[C@@H]1O (stereo partly shown) [cellobiose]	67.803	10336	6560 ± 890	51.89 ± 2.53	15.54	9773.7	1590 ± 410	7.77 ± 0.56								
O=[N+]([O-])c1ccc(O[C@@H]2O[C@H](CO)[C@@H](O)[C@H](O)[C@H]2O)cc1 [pNPG, p-nitrophenyl-β-D-glucopyranoside]									8.4	20000	420 ± 60	4.20 ± 0.14	44.9232	453769.7	99 ± 12	34.38 ± 0.67
